In PubChem BioAssay AID192 (DTP/NCI, 2004):
Toxic doses and inconclusive results are not listed. Rule for the calls: active = survival T/C of 150% or more; inactive = T/C below 125% in these data.

Tested on: BDF1 mice, B16 melanoma ip, median survival T/C
Assay: NCI In Vivo Anticancer Drug Screen. Data for tumor model B16 Melanoma (intraperitoneal) in B6D2F1 (BDF1) mice
Details: endpoint: median survival time, higher = longer survival
Procedure, shortened: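 The ratio T/C compares compound-treated mice with vehicle-treated controls, using survival or tumor size as the endpoint in a transplantable tumor model.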

[1] = dose: 25.0 mg/kg/injection, schedule: Q01DX009 (ip), vehicle: Klucel (hydroxypropylcellulose) (HPC)
[2] = dose: 50.0 mg/kg/injection, schedule: Q01DX009 (ip), vehicle: Klucel (hydroxypropylcellulose) (HPC)
[3] = dose: 100.0 mg/kg/injection, schedule: Q01DX009 (ip), vehicle: Klucel (hydroxypropylcellulose) (HPC)

Measured: T/C

CC[C@@H]1C[C@H]2CC3c4[nH]c5ccccc5c4CCN(C2)C31
inactive: dose: 5.0 mg/kg/injection, schedule: Q01DX009 (ip), vehicle: saline with Tween-80 110 % of control | dose: 10.0 mg/kg/injection, schedule: Q01DX009 (ip), vehicle: saline with Tween-80 107 % of control | dose: 20.0 mg/kg/injection, schedule: Q01DX009 (ip), vehicle: saline with Tween-80 97 % of control

O=C1C(Cl)=C(N2CC2)C(=O)C(Cl)=C1N1CC1
inactive: dose: 0.62 mg/kg/injection, schedule: Q01DX009 (ip), vehicle: Klucel (hydroxypropylcellulose) (HPC) 105 % of control | dose: 1.25 mg/kg/injection, schedule: Q01DX009 (ip), vehicle: Klucel (hydroxypropylcellulose) (HPC) 105 % of control | dose: 2.5 mg/kg/injection, schedule: Q01DX009 (ip), vehicle: Klucel (hydroxypropylcellulose) (HPC) 114 % of control | dose: 2.5 mg/kg/injection, schedule: Q01DX009 (ip), vehicle: saline 115 % of control | dose: 5.0 mg/kg/injection, schedule: Q01DX009 (ip), vehicle: Klucel (hydroxypropylcellulose) (HPC) 123 % of control | dose: 10.0 mg/kg/injection, schedule: Q01DX009 (ip), vehicle: Klucel (hydroxypropylcellulose) (HPC) 124 % of control | dose: 20.0 mg/kg/injection, schedule: Q01DX009 (ip), vehicle: Klucel (hydroxypropylcellulose) (HPC) 124 % of control

Cc1cccc2nc(-c3ccccc3)ccc12
inactive: dose: 12.5 mg/kg/injection, schedule: Q04DX003 (ip), vehicle: saline 107 % of control | dose: 25.0 mg/kg/injection, schedule: Q04DX003 (ip), vehicle: saline 105 % of control

COC(=O)c1[nH]cnc1/N=N/N(C)C
inactive: dose: 3.75 mg/kg/injection, schedule: Q01DX009 (ip), vehicle: saline 121 % of control | dose: 15.0 mg/kg/injection, schedule: Q01DX009 (ip), vehicle: saline 121 % of control

CCOC(=O)Nc1cc(N)cc(NC(=O)OCC)c1
inactive: dose: 50.0 mg/kg/injection, schedule: Q04DX003 (ip), vehicle: Klucel (hydroxypropylcellulose) (HPC) 94 % of control | dose: 100.0 mg/kg/injection, schedule: Q04DX003 (ip), vehicle: Klucel (hydroxypropylcellulose) (HPC) 100 % of control | dose: 200.0 mg/kg/injection, schedule: Q04DX003 (ip), vehicle: Klucel (hydroxypropylcellulose) (HPC) 94 % of control

CCCC1CC[N-]CC1.CCCC1CC[N-]CC1.[Cl][Pt+2][Cl]
inactive: dose: 6.25 mg/kg/injection, schedule: Q01DX009 (ip), vehicle: saline with Tween-80 100 % of control | dose: 12.5 mg/kg/injection, schedule: Q01DX009 (ip), vehicle: saline with Tween-80 110 % of control | dose: 25.0 mg/kg/injection, schedule: Q01DX009 (ip), vehicle: saline with Tween-80 104 % of control

CNC(=O)Oc1c(C)occc1=O
inactive: dose: 6.25 mg/kg/injection, schedule: Q01DX009 (ip), vehicle: saline 100 % of control | dose: 12.5 mg/kg/injection, schedule: Q01DX009 (ip), vehicle: saline 90 % of control | dose: 25.0 mg/kg/injection, schedule: Q01DX009 (ip), vehicle: saline 100 % of control | dose: 50.0 mg/kg/injection, schedule: Q01DX009 (ip), vehicle: saline 97 % of control

C1CC[N-]CC1.CC(=N\O)/C(C)=N/O.CC(=N\O)/C(C)=N/O.[CH3-].[Co+2]
inactive: [1] 105 % of control | [2] 91 % of control | [3] 88 % of control

NC(=O)N1c2ccccc2C=Cc2ccccc21
inactive: dose: 12.5 mg/kg/injection, schedule: Q01DX009 (ip), vehicle: Klucel (hydroxypropylcellulose) (HPC) 112 % of control | [1] 100 % of control | [2] 106 % of control | [3] 91 % of control | dose: 200.0 mg/kg/injection, schedule: Q01DX009 (ip), vehicle: Klucel (hydroxypropylcellulose) (HPC) 90 % of control

CCCCCCCCCCCCCCCC(=O)NNC(C)C
inactive: [1] 96 % of control | [2] 90 % of control | [3] 86 % of control

O=[N+]([O-])c1ccc2c(N=Nc3ccc4ccccc4c3O)c(O)cc(S(=O)(=O)O)c2c1
inactive: dose: 37.5 mg/kg/injection, schedule: Q01DX009 (ip), vehicle: Klucel (hydroxypropylcellulose) (HPC) 94 % of control | dose: 75.0 mg/kg/injection, schedule: Q01DX009 (ip), vehicle: Klucel (hydroxypropylcellulose) (HPC) 98 % of control

CC(C)(C)OC(=O)NC(N)=NCCCC(NC(=O)OC(C)(C)C)C(=O)O (stereo not given)
inactive: dose: 50.0 mg/kg/injection, schedule: Q01DX009 (ip), vehicle: saline with Tween-80 101 % of control | dose: 100.0 mg/kg/injection, schedule: Q01DX009 (ip), vehicle: saline with Tween-80 88 % of control | dose: 200.0 mg/kg/injection, schedule: Q01DX009 (ip), vehicle: saline with Tween-80 87 % of control
